Reference: patent publication EP0719251B1, “BICYCLO (2.2.2) OCTANE DERIVATIVES CHOLECYSTOKININ AND/OR GASTRIN ANTAGONISTS” (JAMES BLACK FOUNDATION LIMITED, priority 1993, dated 1995)

Assays:
gastrin = molecular target: T1, gastrin (Rattus norvegicus, UniProt P30553); test: gastrin antagonist activity in an immature rat stomach assay; details: isolated immature rat stomach, cumulative pentagastrin dose-response curves, acid secretion; for Kb: read-out: Gastrin pKB (converted); for Gastrin pKB: 60 min
T1 construct: The stomach was excised and flushed with ca. 1 ml of unbuffered physiological saline solution; from tissue; host or cells: isolated whole stomach of immature rats (33-50 g, ca. 21 days old)
T1 sequence (P30553 1-452): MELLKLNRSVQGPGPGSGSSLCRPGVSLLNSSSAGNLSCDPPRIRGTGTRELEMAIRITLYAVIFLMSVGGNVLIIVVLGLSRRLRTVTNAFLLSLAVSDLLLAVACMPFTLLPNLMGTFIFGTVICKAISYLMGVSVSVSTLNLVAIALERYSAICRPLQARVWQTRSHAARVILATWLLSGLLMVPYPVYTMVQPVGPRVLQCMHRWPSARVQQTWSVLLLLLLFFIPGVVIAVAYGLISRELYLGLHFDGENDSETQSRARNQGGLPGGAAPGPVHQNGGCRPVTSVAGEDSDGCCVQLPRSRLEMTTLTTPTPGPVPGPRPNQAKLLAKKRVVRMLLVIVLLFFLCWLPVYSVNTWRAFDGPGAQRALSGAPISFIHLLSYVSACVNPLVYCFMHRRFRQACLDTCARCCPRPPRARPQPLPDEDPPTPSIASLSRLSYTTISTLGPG
Procedure, shortened: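 Isolated stomachs from immature rats (33-50 g, ca. 21 days) perfused at 1 ml min^-1 with O2-gassed unbuffered saline, perfusate pH monitored by electrode. After 120 min stabilisation, compounds added to serosal bath; cumulative pentagastrin dose-response curves begun 60 min later.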

CCKB receptor = molecular target: T2, CCKB receptor (Mus musculus, UniProt P56481); test: radioligand binding assay at the CCKB receptor in mouse cortical membranes; details: [125I]-CCK8S 200pM, 150 min at 21 ± 3°C; for Ki: read-out: CCKB pKi (converted)
T2 construct: The whole brains from male mice (CD1 22-25g; Charles River) were removed; from tissue; host or cells: cerebral cortex membranes of male CD1 mice
T2 sequence (P56481 1-453): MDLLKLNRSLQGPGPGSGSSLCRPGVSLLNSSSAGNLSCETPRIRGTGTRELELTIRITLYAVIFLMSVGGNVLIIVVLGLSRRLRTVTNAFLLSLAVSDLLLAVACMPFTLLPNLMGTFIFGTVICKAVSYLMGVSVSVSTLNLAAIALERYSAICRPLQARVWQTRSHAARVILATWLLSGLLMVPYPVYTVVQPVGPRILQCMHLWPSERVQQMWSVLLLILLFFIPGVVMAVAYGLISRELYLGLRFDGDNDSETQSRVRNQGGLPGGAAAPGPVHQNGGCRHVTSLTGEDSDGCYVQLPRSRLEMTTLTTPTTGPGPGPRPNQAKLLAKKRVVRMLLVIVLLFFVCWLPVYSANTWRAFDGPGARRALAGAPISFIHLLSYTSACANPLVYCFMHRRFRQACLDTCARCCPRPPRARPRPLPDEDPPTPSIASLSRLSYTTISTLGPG
Procedure, shortened: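 Cortical membranes from male CD1 mice prepared in HEPES buffer (pH 7.2, with NaCl, KCl, MgCl2, EDTA, bacitracin) at 2 mg/ml wet weight. Binding stopped by rapid filtration over GF/B filters with ice-cold Tris-HCl washes. Bound radioactivity counted in a gamma-counter.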

CCKA = molecular target: T3, CCKA (Cavia porcellus, UniProt Q63931); test: CCKA binding assay in guinea-pig pancreas membranes; details: [125I]-CCK8(S) 200pM; for Ki: containing 0.375 µM PD134,308, read-out: CCKA pKi (converted); for CCKA pKi: containing 0.375 µM PD134,308
T3 construct: The pancreatata were removed from male guinea-pigs (200-300g; Dunkin Hartley); from tissue; host or cells: pancreas membranes of male Dunkin Hartley guinea-pigs
T3 sequence (Q63931 1-430): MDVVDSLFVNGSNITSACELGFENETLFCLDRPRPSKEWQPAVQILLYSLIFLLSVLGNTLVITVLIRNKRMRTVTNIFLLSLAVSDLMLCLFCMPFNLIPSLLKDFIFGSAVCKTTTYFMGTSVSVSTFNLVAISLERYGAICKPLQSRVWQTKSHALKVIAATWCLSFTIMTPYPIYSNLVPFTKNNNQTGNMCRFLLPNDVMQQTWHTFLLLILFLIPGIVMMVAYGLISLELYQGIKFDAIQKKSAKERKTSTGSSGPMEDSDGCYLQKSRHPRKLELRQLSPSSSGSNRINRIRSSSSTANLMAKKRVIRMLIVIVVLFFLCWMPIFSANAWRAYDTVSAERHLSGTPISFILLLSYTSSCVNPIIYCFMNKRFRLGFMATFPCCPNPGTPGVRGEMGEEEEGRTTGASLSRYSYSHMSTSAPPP
Procedure: The compounds of the examples were also tested in a CCKÅ binding assay as follows:
The pancreatata were removed from male guinea-pigs (200-300g; Dunkin Hartley) and placed in ice-cold HEPES buffer (pH 7.2 @ 21 ± 3° ). The pancreatata were homogenised in 40 ml ice-cold HEPES buffer using a polytron (Brinkmann, PT10, setting 10) 4 x 1 second.
The homogenate was centrifuged at 39,800g for 15 min at 4°. The supernatant was discarded and the pellet re-suspended using a Teflon-in-glass homogeniser in 20 volumes of fresh buffer and recentrifuged as above. The final pellet was re-suspended using a Teflon-in-glass homogeniser to a tissue concentration of 1 mg.ml^-1 (original wet weight), and filtered through 500 µm pore-size Nytex mesh.
The membranes (400µl; containing 0.375 µM PD134,308) are incubated for 150 minutes at 21 ± 3° in a final volume of 0.5ml with HEPES buffer containing [^125I]-CCK8(S) (50µl; 200pM) and competing compound. Total and non-specific binding of [^125I]-CCK8 (S) are defined using 50µl of buffer and 50µl of 100nM L-364,718 respectively. The assay is terminated by rapid filtration through pre-soaked Whatman GF/B filters using a Brandell Cell Harvester. The filters were washed (3 x 3ml) with ice-cold 50mM Tris HCl (pH 7.4 at 4° ) and bound radioactivity is determined by counting (1 min) in a gamma counter.

| Structure (SMILES) | Kb (gastrin) [nM] | Ki (CCKB receptor) [nM] | Ki (CCKA) [nM] | CCKA pKi (CCKA) | Gastrin pKB (gastrin) | CCKB pKi (CCKB receptor) |
| --- | --- | --- | --- | --- | --- | --- |
| O=C(O)c1cc(NC(=O)[C@H](Cc2ccccc2)NC(=O)C2C3c4ccccc4C(c4ccccc43)C2C(=O)NCC2CCCCC2)cc(C(=O)O)c1 (single isomer, unassigned) [Example 30, cis-7-(1S-(3,5-dicarboxyphenylaminocarbonyl)-2-phenylethylaminocarbonyl)-8-(1-cyclohexanemethylaminocarbonyl)-2,3,5,6-dibenzobicyclo [2.2.2] octane] | 50.1 | 20 | 3980 | – | – | – |
| O=C(O)c1cccc(NC(=O)[C@H](Cc2ccccc2)NC(=O)C2C3c4ccccc4C(c4ccccc43)C2C(=O)NCC23CC4CC(CC(C4)C2)C3)c1 (single isomer, unassigned) [Example 40, cis-7-(1S-(3-carboxyphenylaminocarbonyl)-2-phenylethylaminocarbonyl) -8-(1-adamantanemethylaminocarbonyl)-2,3,5,6-dibenzobicyclo[2.2.2]octane] | 2000 | 15.8 | 1000 | – | – | – |
| O=C(O)c1cc(NC(=O)[C@H](Cc2ccc(Cl)cc2)NC(=O)C2C3c4ccccc4C(c4ccccc43)C2C(=O)NCC23CC4CC(CC(C4)C2)C3)cc(C(=O)O)c1 (single isomer, unassigned) [Example 11, cis-7-(1S-(3,5-dicarboxyphenylaminocarbonyl)-2-(4-chlorophenyl)ethylaminocarbonyl)-8-(1-adamantanemethylaminocarbonyl) -2,3,5,6-dibenzobicyclo[2.2.2]octane] | 100 | 251 | 50.1 | – | – | – |
| O=C(O)c1cc(NC(=O)[C@H](Cc2ccccc2)NC(=O)C2C3c4ccccc4C(c4ccccc43)C2C(=O)NCC2CCCCC2)cc(C(=O)O)c1 (single isomer, unassigned) [Example 31, cis-7-(1S-(3,5-dicarboxyphenylaminocarbonyl) -2-phenylethylaminocarbonyl)-8-(cyclohexanemethylaminocarbonyl) -2,3,5,6-dibenzobicyclo[2.2.2]octane] | 251 | 200 | 1260 | – | – | – |
| O=C(O)c1cc(NC(=O)[C@H](CC2CCCCC2)NC(=O)C2C3c4ccccc4C(c4ccccc43)C2C(=O)NCC23CC4CC(CC(C4)C2)C3)cc(C(=O)O)c1 (stereo partly drawn) [Example 5, cis-7-(1S-(3,5-dicarboxyphenylaminocarbonyl) -2-cyclohexylethylaminocarbonyl)-8-(1-adamantanemethylaminocarbonyl) -2,3,5,6-dibenzobicyclo[2.2.2]octane] | 316 | 25.1 | 1000 | – | – | – |
| O=C(O)c1cc(NC(=O)[C@H](Cc2ccccc2Cl)NC(=O)C2C3c4ccccc4C(c4ccccc43)C2C(=O)NCC23CC4CC(CC(C4)C2)C3)cc(C(=O)O)c1 (stereo partly drawn) [Example 20, cis-7-(1S-(3,5-dicarboxyphenylaminocarbonyl)-2-(2-chlorophenyl) -ethylaminocarbonyl)-8-(1-adamantanemethylaminocarbonyl) -2,3,5,6-dibenzobicyclo [2.2.2] octane] | 6.31 | 10 | 2000 | – | – | – |

Second part, the molecule after the results:

| Kb (gastrin) [nM] | Ki (CCKB receptor) [nM] | Ki (CCKA) [nM] | CCKA pKi (CCKA) | Gastrin pKB (gastrin) | CCKB pKi (CCKB receptor) | Structure (SMILES) |
| --- | --- | --- | --- | --- | --- | --- |
| 316 | 5.01 | – | 5.8 | – | – | O=C(O)c1cc(NC(=O)[C@H](Cc2ccccc2)NC(=O)C2C3c4ccccc4C(c4ccccc43)C2C(=O)NCc2ccc3ccccc3c2)cc(C(=O)O)c1 (single isomer, unassigned) [Example 64, cis-7-(1S-(3,5-dicarboxyphenylaminocarbonyl) -2-phenylethylaminocarbcnyl)-8-(2-naphthalenemethylaminocarbonyl)-2,3,5,6-dibenzobicyclo [2.2.2]octane] |
| – | – | – | 7.0 | 5.8 | 6.7 | O=C(O)c1cc(NC(=O)[C@H](Cc2ccc3ccccc3c2)NC(=O)C2C3c4ccccc4C(c4ccccc43)C2C(=O)NCC23CC4CC(CC(C4)C2)C3)cc(C(=O)O)c1 (single isomer, unassigned) [Example 15, cis-7-(1S-(3,5-dicarboxyphenylaminocarbonyl)-2-(2-naphthyl)ethylaminocarbonyl)-8-(1-adamantanemethylaminocarbonyl) -2,3,5,6-dibenzobicyclo[2.2.2]octane] |
| 25.1 | 10 | 501 | – | – | – | O=C(O)c1cc(NC(=O)[C@H](Cc2ccccc2)NC(=O)C2C3c4ccccc4C(c4ccccc43)C2C(=O)NCc2cccc3ccccc23)cc(C(=O)O)c1 (single isomer, unassigned) [Example 32, cis-7-(1S-(3,5-dicarboxyphenylaminocarbonyl)-2-phenylethylaminocarbonyl)-8-(1-naphthalenemethylaminocarbonyl) -2,3,5,6-dibenzobicyclo [2.2.2]octane] |
| 316 | 39.8 | 251 | – | – | – | O=C(O)c1cc(NC(=O)[C@H](Cc2ccccc2)NC(=O)C2C3c4ccccc4C(c4ccccc43)C2C(=O)NCc2ccc(Cl)c(Cl)c2)cc(C(=O)O)c1 (single isomer, unassigned) [Example 34, cis-7-(1S-(3,5-dicarboxyphenylaminocarbonyl) -2-phenylethylaminocarbonyl) -8-(3,4-dichlorophenyl-methylaminocarbonyl) -2,3,5,6-dibenzobicyclo[2.2.2]octane] |
| – | – | – | 6.1 | 6.9 | 6.5 | O=C(O)c1cc(NC(=O)[C@H](Cc2ccc3ccccc3c2)NC(=O)C2C3c4ccccc4C(c4ccccc43)C2C(=O)NCC23CC4CC(CC(C4)C2)C3)cc(C(=O)O)c1 (single isomer, unassigned) [Example 14, cis-7-(1S-(3,5-dicarboxyphenylaminocarbonyl)-2-(2-naphthyl) -ethylaminocarbonyl)-8-(1-adamantanemethylaminocarbonyl)-2,3,5,6-dibenzobicyclo[2.2.2]octane] |
